Reference: patent publication US20040058309A1, “Plasma supplement and use in liver assist systems” (priority 2003, published 2004)
Entries after “also recorded” stand apart in the source; their conditions may differ. Where two headings read alike, the source gives them in different places.

Key:
[1] = tested on: Rat hepatocytes; experiment: Urea synthesis rate of rat hepatocytes (collagen sandwich) exposed to supplemented citrated human plasma; type: cell-based
Description: (§1) Type I collagen was prepared from Lewis rat tail tendons as previously described in Dunn et al. (supra). […] Six-well culture plates were coated with 0.5 ml of collagen gelling solution and the coated plates were incubated at 37° C. for 1 hour to allow for gelation. The hepatocytes were suspended in culture medium and seeded at a density of 1.0×10^6 cell per well. The standard hepatocyte culture medium consisted of DMEM supplemented with 10% FBS, 0.5 U/ml insulin, 14 ng/ml glucagon, 20 ng/ml EGF, 7.5 μg/ml hydrocortisone, 200 U/ml penicillin, and 200 μg/ml streptomycin. After incubating at 37° C. in a humidified gas mixture of 90% air/10% CO2 for 24 hours, the culture medium was removed and the cells were overlaid with a second 0.5 ml layer of collagen gelling solution to form the collagen sandwich. After gelling for 45 minutes at 37° C., 1 ml of fresh medium was added. Fresh medium (1 ml) was supplied to the cultures daily after removal of the previous day's medium. The hepatocytes were cultured for 6 days in standard culture medium prior to plasma exposure.
(§2) Expired plasma from a blood bank was pooled, aliquoted, and kept frozen until used for experiments. Plasma supplements were prepared in concentrated form and added individually to plasma as described in the following examples.
(§3) In each set of experiments, components of the supplementation to be included or excluded were designated according to the result from prior experiments. On the 7th day after isolation, the culture medium was removed and hepatocytes were fed with 1 ml of plasma. Cells were fed with fresh plasma daily thereafter. Control cultures were maintained in hepatocyte culture medium throughout. For the hormone study only, the 6-day-old collagen double-gel cultures were washed 10 times with unsupplemented DMEM to remove residual hormones in the collagen gel, and twice with medium or plasma identical to the following experimental condition.
(§4) Culture supernatants were collected daily after a 24 hour culture period. […] A standard curve was derived using background culture medium prepared by incubation with an empty collagen gel for the same period as the cell culture, and chromatographically purified rat albumin (Cappel Laboratories). Urea concentration in standard culture medium and in plasma was measured by the specific reaction of diacetyl monoxime with urea (Blood Urea Nitrogen Assay Kit, Sigma Diagnostics).
(§5) Rates of secretion were normalized to the number of cells initially seeded. […] The statistical significance of observed differences was determined by two-way analysis of variance and post hoc Tukey's test. An alpha value of 5% was considered significant.

[2] = tested on: Rat hepatocytes; experiment: Albumin synthesis rate of rat hepatocytes (collagen sandwich) exposed to supplemented citrated human plasma; type: cell-based; settings: for Albumin synthesis (in words) vs plasma with BME amino acid supplementation: 10 mM as only amino acid supplementation of citrated plasma
Description: as §1, §2, §3, §4, §5

[3] = citrated human plasma + 5× medium concentrate, day 5 of plasma exposure, vs fully supplemented plasma

Compound	Effect on albumin synthesis of removing (or reducing) the component in the plasma supplementation [2, 3]	Effect on urea synthesis of removing (or reducing) the component in the plasma supplementation [1, 3]	other results
[Ca+2].[Cl-].[Cl-] [calcium chloride]			Effect on urea synthesis of removing (or reducing) the component in the plasma supplementation [1]: significantly less; Effect on albumin synthesis of removing (or reducing) the component in the plasma supplementation [2]: significantly less
NC(=O)CC[C@H](N)C(=O)O [glutamine]			Urea synthesis rate (in words) ([1]; 10 mM as only amino acid supplementation of citrated plasma, day 5 of plasma exposure): maintained; Albumin synthesis (in words) vs plasma with BME amino acid supplementation ([2]; day 5 of plasma exposure): significantly less albumin
NCC(=O)O [glycine]			Decrease of urea synthesis rate ([1]; 10 mM as only amino acid supplementation of citrated plasma, day 5 of plasma exposure, vs BME amino acids): 43%; Albumin synthesis (in words) vs plasma with BME amino acid supplementation ([2]; day 5 of plasma exposure): significantly less albumin
C[C@]12CCC(=O)C=C1CC[C@@H]1[C@@H]2[C@@H](O)C[C@@]2(C)[C@H]1CC[C@]2(O)C(=O)CO [hydrocortisone, reference compound]	significantly reduced		
[Cl-].[Cl-].[Mg+2] [magnesium chloride]			Effect on urea synthesis of removing (or reducing) the component in the plasma supplementation [1]: significantly less; Effect on albumin synthesis of removing (or reducing) the component in the plasma supplementation [2]: significantly less
[Cl-].[K+] [potassium chloride]	no significant effect	no significant effect	
[Cl-].[Na+] [sodium chloride]	increased; also recorded: enhanced	increased; also recorded: enhanced	
glucagon [reference compound]	significantly reduced	decreased significantly	
insulin [reference compound]	significantly reduced		
